Laboratory results from patent US9861625B2, “Methods and compositions for treating cancer through inhibition of PI3K” (Duke University, priority 2014, dated 2018).
pIC50: −log10 of the molar value.

Experiments:
[1] = test system: nine different cells lines; experiment: IPA-3 as a single agent in nine cell lines; assay type: cell-based
Description: The 3-(4,5-dimethylthiazol-2-yl)-2,5-diphenyltetrazolium bromide (MTT) cell viability assay was used to determine cell viability in response to drug treatment. Five replicates per concentration tested were carried out in serial dilutions with a total of ten concentrations with a 50% reduction in drug concentration per dilution for each plate. A total of 15 μl of MTT reagent was added to each drug-treated well and incubated for three hours in 37° C. Detergent was added to each drug-treated well and incubated overnight at room temperature without exposure to light. Absorbance was measured at 570 nm using a plate reader from Tecan Group. The IC50 concentration was determined using the publicly available ED50 plus v1.0 software program.
Small-molecule inhibition of PAK1 with IPA-3 achieved consistent results. PAK1 inhibition with IPA-3 was tested in nine different cells lines, both individually and in combination with BEZ235.

[2] = test system: Ly8 cells and normal human B cells (tonsil lymphocytes); experiment: Toxicity in Ly8 cells compared to normal B cells (alamar blue); assay type: cell-based; conditions: alone and in combination; 36 hours
Description: BEZ235 was tested in combination with the PAK1 inhibitor IPA-3 using Calcusyn software by applying the Chou-Talalay method. BJAB, HBL1, HBL2, HT, Ly8, and Riva cells were tested, as were normal tonsil lymphocytes. Ly8 and tonsillar lymphocytes were cultured in 96-well plates (approximately 500,000 cells/ml) for 36 hours in Iscove's modified Dulbecco's medium (IMDM) with 20% human AB serum. Viability was assessed with alamar blue dye and normalized to the lowest concentration of BEZ235 in each group.
Finally, BEZ235 and IPA-3 were administered separately and concurrently to normal human B cells to ascertain a therapeutic window between normal and malignant cells.

Oc1ccc2ccccc2c1SSc1c(O)ccc2ccccc12 [IPA-3]
cell death at 10 μmol/L, upper end of the range ([1]; 10 μmol/L): no cell death | pIC50 ([1]; nine cell lines, read-out: observed IC50 values, lower end of range): ≤ 6.16 | toxicity in Ly8 cells as compared to normal B cells [2]: selective toxicity
